We go through 2 compounds from publication PMC9026148, “Pre-Clinical Study Evaluating Novel Protein Phosphatase 2A Activators as Therapeutics for Neuroblastoma” (Cancers, 2022).

The subject of data set [1] is SK-N-AS, SK-N-BE(2), SH-EP, WAC2 cells. Nature of the data set: Modified Boyden chamber invasion assay. Type of data set: cell-based, human. Conditions: 24-h treatment, same doses as scratch assay; four cell lines. On the procedure: Since the established neuroblastoma cell lines grow as adherent cells, migration in SK-N-AS, SK-N-BE(2), SH-EP, and WAC2 cells was examined using monolayer wound healing (scratch) assay. […] Once cells reached 80% confluence, a sterile 200 μL pipette tip was used to make a standard scratch in the cell layer. Photographs of the plates were obtained at 0, 12, 24, and 36 h. ImageJ MRI Wound Healing Tool (http://imagej.nih.gov/ij/ (accessed on 14 October 2019) quantified the open wound area, and data reported as fold change of the open area ± SEM. Invasion was evaluated with a modified Boyden chamber technique. The insert bottoms were coated with collagen type I (10 µg/mL, MP Biomedicals, Santa Ana, CA, USA). The insert tops were coated with a layer of Matrigel^TM (1 mg/mL, 50 μL, BD Biosciences). Cells were treated for 24 h with 792 (SK-N-AS 10 μM; SK-N-BE(2), SH-EP, WAC2 15 μM) or 1154 (SK-N-AS, SK-N-BE(2) 10 μM; SH-EP, WAC2 15 μM), plated (4 × 10^4 cells), and allowed to invade through the membrane for 24 h. Insert membranes were fixed using 4% paraformaldehyde, stained with 1% crystal violet for 15 min, photographed, and invasion quantified with ImageJ (http://imagej.nih.gov/ij/ (accessed on 10 September 2019)). Invasion data were reported as mean percent membrane occupied by cells ± SEM. Experiments were completed with at least three biologic replicates.

The test system of the next data set is SET. Nature of the data set: Immunoblotting of SET in neuroblastoma cells. In kind it is cell-based, human. The following applies: increasing concentrations, 24 h; four cell lines and two PDXs. Here is the method:
Following treatment, cells were lysed on ice using radioimmunoprecipitation (RIPA) buffer with phosphatase inhibitors (P5726, Sigma Aldrich), protease inhibitors (P8340, Sigma Aldrich), and phenylmethanesulfonylfluoride (PMSF, P7626, Sigma Aldrich) for 60 min. Cell lysates were centrifuged at 17,000 rpm for 30 min at 4 °C. Pierce™ BCA Protein Assay (Thermo Fisher Scientific, Inc.) determined protein concentration and proteins were separated by electrophoresis on sodium dodecyl sulfate polyacrylamide (SDS-PAGE) gels. Expected size of the targeted proteins was confirmed using molecular weight markers (Precision Plus Protein Kaleidoscope, Bio-Rad, Hercules, CA, USA). […] Immunoblots were developed with Luminata Classico or Crescendo Western horseradish peroxidase substrate (EMD Millipore, Burlington, MA, USA). Either anti-vinculin or anti-β-actin (as available from manufacturer) served as an internal loading control. We performed densitometry of Western blots using ImageJ software (Ver 1.49, http://imagej.nih.gov/ij (accessed on 9 February 2022).

Data set [2] in a line: Microsome (oxidative metabolism) stability, rat. In kind it is in vitro ADME. Conditions: for half-life at 1 µM: liver microsomes 0.5 mg/mL, NADPH, read-out: T1/2 Rat; for microsomal CLint at 1 µM: liver microsomes, read-out: CL Rat. Here is the method:
(§1) Microsome stability assays were performed by Bioduro, LLC. Briefly, 2.5 µL (100 µM in DMSO) of test compounds are added to 197.5 µL of human, rat, or mouse microsome preparation (0.633 mg/mL in phosphate buffer) and mixed gently at 37 °C. The reaction is started by adding 50 µL NADPH (5 mM in phosphate buffer) and mixing at 37 °C. The final reaction microsome concentration is 0.5 mg/mL. The reaction is sampled at 0, 5, 15, 30, and 60 min. Reaction aliquots are quenched by adding to 1:1 methanol–acetonitrile containing analytical standards and analyzed by liquid chromatography with tandem mass spectrometry (LC-MS/MS).

A short description of data set [3]: Microsome (oxidative metabolism) stability, mouse. Type of data set: in vitro ADME. Conditions: for half-life at 1 µM: liver microsomes 0.5 mg/mL, NADPH, read-out: T1/2 Mouse; for microsomal CLint at 1 µM: liver microsomes, read-out: CL Mouse. On the procedure: as §1
Data set [4] in a line: Microsome (oxidative metabolism) stability, human. Conditions: for half-life at 1 µM: liver microsomes 0.5 mg/mL, NADPH, read-out: T1/2 Human; for microsomal CLint at 1 µM: liver microsomes, read-out: CL Human. Type of data set: in vitro ADME. On the procedure: as §1
In another data set the test system is SK-N-AS flank tumors. Nature of the data set: SK-N-AS flank tumor growth in athymic nude mice. Type of data set: in vivo, mouse. Conditions: 50 mg/kg bid po; for Percent necrosis in SK-N-AS tumors: H&E, blinded pathologist, vehicle 8.3 ± 3.3%; for tumor volume: SK-N-AS flank tumors, after 9 days, vehicle 2104 ± 53. Here is the method: SK-N-AS (1.8 × 10^6) or SK-N-BE(2) (1.5 × 10^6) cells in 25% Matrigel™ (BD Biosciences) were injected into the right flank of 6-week-old female athymic nude mice (Fredricks, Charles River, Wilmington, MA, USA) (n = 5 for SK-N-AS vehicle treated, n = 7 for SK-N-AS 792 or 1154 treatment and all SK-N-BE(2) experimental groups). Calipers were used to measure tumors three times per week, and volumes were calculated by the formula (width^2 × length)/2, where width was the smaller measurement. After tumors reached a volume of 100 mm^3, animals were randomized to three groups to receive 100 µL of either vehicle (N,N-dimethylacetamide (DMA, 271012, Sigma Aldrich) and Kolliphor® HS 15 (Solutol, 42996, Sigma Aldrich)), 792 (50 mg/kg in DMA and Solutol), or 1154 (50 mg/kg in DMA and Solutol) twice daily by oral gavage; dosing based on previously published in vivo cancer models. Animals were weighed weekly and were humanely euthanized in their home cages with CO2 and cervical dislocation when control tumors reached 2000 mm^3; either 9 (SK-N-AS tumors) or 19 days (SK-N-BE(2) tumors) following treatment initiation, or when IACUC parameters were met. Power analysis was completed prior to the study.

Regarding `O=S(=O)(NC1CCCC(N2c3ccccc3CCc3ccccc32)C1O)c1ccc(OC(F)(F)F)cc1` (stereo not drawn) [DBK-1154], the Invasion entry in data set [1] is “significantly decreased”. Besides, the SET expression entry in the data set with SET is on record as “unchanged”. For the same compound, the half-life at 1 µM in data set [2] is 3 min; in data set [3] it was 6 min; in data set [4], 10 min. Moreover, the figures for the microsomal CLint at 1 µM in data set [2], in data set [3] and in data set [4] were 521 µL/min/mg, 234 µL/min/mg and 134 µL/min/mg, respectively. Besides, the “Percent necrosis in SK-N-AS tumors” value in the data set with SK-N-AS flank tumors was 23.3 ± 6.7%. The compound also registered a tumor volume in the data set on SK-N-AS flank tumors of 2124 ± 275 mm^3.
Turning to `O=S(=O)(N[C@H]1COC[C@@H](n2c3ccc(Cl)cc3c3cc(Cl)ccc32)[C@@H]1O)c1ccc(OC(F)(F)F)cc1` [ATUX-792], in data set [1], the Invasion result is given as “significantly decreased”. The SET expression entry in the data set on SET was “unchanged”. Moreover, in data set [2], the half-life at 1 µM was greater than 256 min and the microsomal CLint at 1 µM is less than 5 µL/min/mg. In data set [3], the half-life at 1 µM was greater than 256 min and the microsomal CLint at 1 µM is less than 5 µL/min/mg. Besides, in data set [4], the half-life at 1 µM was greater than 256 min and the microsomal CLint at 1 µM is less than 5 µL/min/mg. Moreover, in the data set on SK-N-AS flank tumors, the “Percent necrosis in SK-N-AS tumors” value is on record as 33.3 ± 8.8% and the tumor volume was 1309 ± 169 mm^3. Also, the “ganglion cells in tumors (tumor cell differentiation)” value with SK-N-AS flank tumors (SK-N-AS tumors, H&E staining) was “ganglion cells present”.
